Laboratory results published in article PMC7337102 (ACS infectious diseases, 2019).

How the values were obtained:
Type in all cases: biochemical
Eis_D26A = Eis_D26A (Mycobacterium tuberculosis, UniProt P9WFK7, D26A)
Eis_W36A = Eis_W36A (Mycobacterium tuberculosis, UniProt P9WFK7, W36A)
Eis_W36R = Eis_W36R (Mycobacterium tuberculosis, UniProt P9WFK7, W36R)
Eis_R37A = Eis_R37A (Mycobacterium tuberculosis, UniProt P9WFK7, R37A)
Eis_R37G = Eis_R37G (Mycobacterium tuberculosis, UniProt P9WFK7, R37G)
Eis_L63A = Eis_L63A (Mycobacterium tuberculosis, UniProt P9WFK7, L63A)
Eis_M65A = Eis_M65A (Mycobacterium tuberculosis, UniProt P9WFK7, M65A)
Eis_S83G = Eis_S83G (Mycobacterium tuberculosis, UniProt P9WFK7, S83G)
Eis_F84A = Eis_F84A (Mycobacterium tuberculosis, UniProt P9WFK7, F84A)

In the case of NC[C@H]1O[C@H](O[C@H]2[C@H](O)[C@@H](O[C@H]3O[C@H](CO)[C@@H](O)[C@H](N)[C@H]3O)[C@H](N)C[C@@H]2N)[C@H](O)[C@@H](O)[C@@H]1O [KAN, kanamycin], the Km (Eis_D26A) is reported as 1280 ± 360 µM, the “increase in the Km value of KAN from that for the wild-type enzyme” value (Eis_D26A) is reported as 2.3 fold and the kcat (Eis_D26A) is reported as 0.235 ± 0.0417 s⁻¹. For the same molecule, the Km (Eis_W36A) was 556 ± 148 µM, the kcat (Eis_W36A) was 0.138 ± 0.0167 s⁻¹ and the Km (Eis_W36R) was 352 ± 77 µM. For the same molecule, the “decrease in the maximum turnover rate” value (Eis_W36R) was 3.3 fold, the “increase of the binding affinity to KAN” value (Eis_W36R) was 1.6 fold and the kcat (Eis_W36R) was 0.0733 ± 0.0067 s⁻¹. For the same molecule, the Km (Eis_R37A) was 971 ± 166 µM, the kcat (Eis_R37A) was 0.158 ± 0.005 s⁻¹ and the Km (Eis_R37G) was 696 ± 44 µM. It also gave a kcat (Eis_R37G) of 0.215 ± 0.0017 s⁻¹, a Km (Eis_L63A) of 484 ± 93 µM and a kcat (Eis_L63A) of 0.323 ± 0.025 s⁻¹. The Km (Eis_M65A) was 247 ± 19 µM, the “increase in the catalytic efficiency from that of the wild-type enzyme” value (Eis_M65A) was 4.6 fold and the kcat (Eis_M65A) was 0.495 ± 0.015 s⁻¹. For the same molecule, the “maximum turnover rate, fold higher” value (Eis_M65A) was 2 fold, the Km (Eis_S83G) was 432 ± 48 µM and the “increase in the catalytic efficiency of the enzyme” value (Eis_S83G) was 2 fold. The kcat (Eis_S83G) was 0.365 ± 0.013 s⁻¹, the Km (Eis_F84A) was 569 ± 94 µM and the kcat (Eis_F84A) was 0.142 ± 0.012 s⁻¹.
